# From PubChem BioAssay (NCI)
#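 96-well plates; 48 h exposure; 5 concentrations. Endpoints by linear interpolation between flanking doses. Not reached: highest tested concentration assigned. TGI marks complete inhibition of growth.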
# Experiments:
# Test in all cases: NCI tumour cell line growth inhibition, 48 h
# SNB-75 CNS = system: SNB-75 CNS
# PC-3 prostate = system: PC-3 prostate
# A549 NSCLC = system: A549 NSCLC
# NCI-H522 lung = system: NCI-H522 lung
# UACC-62 melanoma = system: UACC-62 melanoma
# SK-MEL-2 melanoma = system: SK-MEL-2 melanoma
# KM12 colon = system: KM12 colon
# NCI/ADR-RES ovarian = system: NCI/ADR-RES ovarian
# SK-OV-3 ovarian = system: SK-OV-3 ovarian
# CAKI-1 renal = system: CAKI-1 renal
smiles,measurement,setting,value
Cn1c(CO)ccc1-c1ccc(-c2ccc(CO)[se]2)[se]1,TGI,SNB-75 CNS,> 100 µM
same,TGI,PC-3 prostate,> 100 µM
same,TGI,A549 NSCLC,> 100 µM
same,TGI,NCI-H522 lung,> 86.3 µM
same,TGI,UACC-62 melanoma,31.5 µM
same,TGI,SK-MEL-2 melanoma,26.9 µM
same,TGI,KM12 colon,> 64.1 µM
same,TGI,NCI/ADR-RES ovarian,> 100 µM
same,TGI,SK-OV-3 ovarian,> 100 µM
same,TGI,CAKI-1 renal,0.0381 µM
O=c1[nH]nc(Nc2ccc(Cl)cc2)c2nnn(C3CCCCC3)c12,TGI,SNB-75 CNS,> 100 µM
same,TGI,PC-3 prostate,> 100 µM
same,TGI,A549 NSCLC,> 100 µM
same,TGI,NCI-H522 lung,81.7 µM
same,TGI,UACC-62 melanoma,> 100 µM
same,TGI,SK-MEL-2 melanoma,> 100 µM
same,TGI,KM12 colon,> 100 µM
same,TGI,NCI/ADR-RES ovarian,> 100 µM
same,TGI,CAKI-1 renal,51.8 µM
O=C(/C=C/c1ccccc1)c1cc(CN2CCOCC2)c(O)c(CN2CCOCC2)c1,TGI,SNB-75 CNS,38.9 µM
same,TGI,PC-3 prostate,38.4 µM
same,TGI,A549 NSCLC,33.2 µM
same,TGI,NCI-H522 lung,> 100 µM
same,TGI,UACC-62 melanoma,39.5 µM
same,TGI,SK-MEL-2 melanoma,61.8 µM
same,TGI,KM12 colon,33.1 µM
same,TGI,NCI/ADR-RES ovarian,> 100 µM
same,TGI,CAKI-1 renal,4.36 µM
Cc1ccc(C(=O)Nc2ccc(CP(=O)(O)O)cc2CP(=O)(O)O)cc1N,TGI,SNB-75 CNS,> 100 µM
same,TGI,PC-3 prostate,> 100 µM
same,TGI,A549 NSCLC,> 100 µM
same,TGI,NCI-H522 lung,> 100 µM
same,TGI,UACC-62 melanoma,> 100 µM
same,TGI,SK-MEL-2 melanoma,> 100 µM
same,TGI,KM12 colon,> 100 µM
same,TGI,NCI/ADR-RES ovarian,> 100 µM
same,TGI,SK-OV-3 ovarian,> 100 µM
same,TGI,CAKI-1 renal,> 100 µM
O=S(Nc1ccccc1)c1ccc(Cl)cc1 (configuration not stated),TGI,A549 NSCLC,> 100 µM
same,TGI,NCI-H522 lung,> 100 µM
same,TGI,UACC-62 melanoma,90 µM
same,TGI,SK-MEL-2 melanoma,> 100 µM
same,TGI,KM12 colon,59.9 µM
same,TGI,NCI/ADR-RES ovarian,> 100 µM
same,TGI,CAKI-1 renal,> 100 µM
CC(=O)OC12c3ccccc3C(c3ccccc31)C1C(=O)N(N=C(C)C)C(=O)C12 (configuration not stated),TGI,SNB-75 CNS,> 100 µM
same,TGI,PC-3 prostate,> 100 µM
same,TGI,A549 NSCLC,> 100 µM
same,TGI,UACC-62 melanoma,> 100 µM
same,TGI,KM12 colon,> 100 µM
same,TGI,NCI/ADR-RES ovarian,> 100 µM
same,TGI,SK-OV-3 ovarian,> 100 µM
same,TGI,CAKI-1 renal,> 100 µM
Cc1cc2nc(N3C(=O)/C(=C/Cc4ccco4)N=C3c3ccccc3)sc2cc1C,TGI,SNB-75 CNS,59.9 µM
same,TGI,PC-3 prostate,54 µM
same,TGI,A549 NSCLC,> 100 µM
same,TGI,UACC-62 melanoma,> 100 µM
same,TGI,SK-MEL-2 melanoma,> 100 µM
same,TGI,KM12 colon,> 100 µM
same,TGI,NCI/ADR-RES ovarian,> 100 µM
same,TGI,SK-OV-3 ovarian,> 100 µM
same,TGI,CAKI-1 renal,> 100 µM
COc1ccc(/C(C=O)=C(\Cl)c2ccc(OC)c(OC)c2)cc1,TGI,SNB-75 CNS,60.7 µM
same,TGI,A549 NSCLC,> 100 µM
same,TGI,NCI-H522 lung,33.5 µM
same,TGI,UACC-62 melanoma,> 100 µM
same,TGI,SK-MEL-2 melanoma,> 100 µM
same,TGI,SK-OV-3 ovarian,> 100 µM
same,TGI,CAKI-1 renal,> 100 µM
CC(C)=CC1C(C(=O)OCc2cc3c(cc2Cl)OCO3)C1(C)C (configuration not stated),TGI,SNB-75 CNS,> 100 µM
same,TGI,PC-3 prostate,36 µM
same,TGI,A549 NSCLC,> 100 µM
same,TGI,NCI-H522 lung,44.2 µM
same,TGI,UACC-62 melanoma,> 100 µM
same,TGI,SK-MEL-2 melanoma,23.1 µM
same,TGI,KM12 colon,> 100 µM
same,TGI,NCI/ADR-RES ovarian,> 100 µM
same,TGI,CAKI-1 renal,> 100 µM
CCOC(=O)CNC(=O)c1[nH]cnc1/N=N/N(C)C,TGI,SNB-75 CNS,> 100 µM
same,TGI,A549 NSCLC,> 100 µM
same,TGI,NCI-H522 lung,> 100 µM
same,TGI,UACC-62 melanoma,> 100 µM
same,TGI,SK-MEL-2 melanoma,> 100 µM
same,TGI,KM12 colon,> 100 µM
same,TGI,SK-OV-3 ovarian,> 100 µM
same,TGI,CAKI-1 renal,> 100 µM
CC(C)(C)C(=O)c1c(O)c2ccccc2c2ccccc2c1=O,TGI,SNB-75 CNS,> 100 µM
same,TGI,PC-3 prostate,> 100 µM
same,TGI,A549 NSCLC,> 100 µM
same,TGI,NCI-H522 lung,> 100 µM
same,TGI,UACC-62 melanoma,> 100 µM
same,TGI,SK-MEL-2 melanoma,> 100 µM
same,TGI,KM12 colon,> 100 µM
same,TGI,SK-OV-3 ovarian,> 100 µM
same,TGI,CAKI-1 renal,> 100 µM
O=C(/C=C\c1ccccc1)Oc1ccc(/C=C2\CCC/C(=C\c3ccc(OC(=O)/C=C\c4ccccc4)cc3)C2=O)cc1,TGI,SNB-75 CNS,> 100 µM
same,TGI,PC-3 prostate,> 100 µM
same,TGI,A549 NSCLC,> 100 µM
same,TGI,NCI-H522 lung,> 100 µM
same,TGI,UACC-62 melanoma,> 100 µM
same,TGI,SK-MEL-2 melanoma,> 100 µM
same,TGI,KM12 colon,> 100 µM
same,TGI,NCI/ADR-RES ovarian,> 100 µM
same,TGI,CAKI-1 renal,> 100 µM
Cc1ccc(S(=O)(=O)NC(=O)Nc2ccc(C(=O)O)cc2)cc1,TGI,SNB-75 CNS,> 100 µM
same,TGI,PC-3 prostate,> 100 µM
same,TGI,A549 NSCLC,> 100 µM
same,TGI,NCI-H522 lung,> 100 µM
same,TGI,UACC-62 melanoma,> 100 µM
same,TGI,SK-MEL-2 melanoma,> 100 µM
same,TGI,KM12 colon,> 100 µM
same,TGI,NCI/ADR-RES ovarian,> 100 µM
same,TGI,SK-OV-3 ovarian,> 100 µM
CCCCCCCCCCCCOCC(COP(=O)(O)OCCN=[N+]=[N-])OC(=O)CCCCCCCCCCC (configuration not stated),TGI,PC-3 prostate,> 100 µM
same,TGI,A549 NSCLC,> 100 µM
same,TGI,NCI-H522 lung,> 100 µM
same,TGI,UACC-62 melanoma,> 100 µM
same,TGI,SK-MEL-2 melanoma,> 100 µM
same,TGI,KM12 colon,> 100 µM
same,TGI,NCI/ADR-RES ovarian,> 100 µM
same,TGI,SK-OV-3 ovarian,> 100 µM
same,TGI,CAKI-1 renal,> 100 µM
NC(=O)CSc1nc2ccccc2c(=O)n1N,TGI,SNB-75 CNS,> 100 µM
same,TGI,PC-3 prostate,> 100 µM
same,TGI,A549 NSCLC,> 100 µM
same,TGI,NCI-H522 lung,> 100 µM
same,TGI,UACC-62 melanoma,> 100 µM
same,TGI,SK-MEL-2 melanoma,> 100 µM
same,TGI,KM12 colon,> 100 µM
same,TGI,NCI/ADR-RES ovarian,> 100 µM
same,TGI,CAKI-1 renal,> 100 µM
COC(=O)[C@H](C)NC(=O)[C@H](NS(=O)(=O)c1nc2ccccc2s1)c1ccccc1,TGI,SNB-75 CNS,39.4 µM
same,TGI,PC-3 prostate,> 100 µM
same,TGI,UACC-62 melanoma,28.3 µM
same,TGI,SK-MEL-2 melanoma,25.2 µM
same,TGI,KM12 colon,30.5 µM
same,TGI,NCI/ADR-RES ovarian,> 100 µM
same,TGI,SK-OV-3 ovarian,> 100 µM
same,TGI,CAKI-1 renal,67.2 µM
CCOC(=O)C(Cc1ccc(N=NN(C)C)cc1)NC(=O)CC1c2ccccc2-c2ccccc21 (configuration not stated),TGI,SNB-75 CNS,> 100 µM
same,TGI,A549 NSCLC,> 100 µM
same,TGI,NCI-H522 lung,> 100 µM
same,TGI,UACC-62 melanoma,> 100 µM
same,TGI,SK-MEL-2 melanoma,> 100 µM
same,TGI,KM12 colon,> 100 µM
same,TGI,SK-OV-3 ovarian,> 100 µM
same,TGI,CAKI-1 renal,> 100 µM
CCOC(=O)C1C(c2ccc(Br)cc2)N(Cc2ccccc2)C(c2ccc(Br)cc2)C(C(=O)OC)S1(=O)=O (configuration not stated),TGI,SNB-75 CNS,57.3 µM
same,TGI,A549 NSCLC,> 100 µM
same,TGI,NCI-H522 lung,> 100 µM
same,TGI,UACC-62 melanoma,> 100 µM
same,TGI,SK-MEL-2 melanoma,> 100 µM
same,TGI,KM12 colon,> 100 µM
same,TGI,SK-OV-3 ovarian,> 100 µM
same,TGI,CAKI-1 renal,> 100 µM
COC(=O)Nc1cc(OCCCOC(C)=O)c2[nH]c(C(=O)OC)cc2c1C[C@H](O)CO,TGI,PC-3 prostate,> 100 µM
same,TGI,A549 NSCLC,> 100 µM
same,TGI,NCI-H522 lung,26.9 µM
same,TGI,UACC-62 melanoma,> 100 µM
same,TGI,SK-MEL-2 melanoma,> 100 µM
same,TGI,KM12 colon,> 100 µM
same,TGI,NCI/ADR-RES ovarian,> 100 µM
same,TGI,SK-OV-3 ovarian,> 100 µM
same,TGI,CAKI-1 renal,> 100 µM
Clc1[nH]nc2ccccc12,TGI,SNB-75 CNS,> 100 µM
same,TGI,PC-3 prostate,> 100 µM
same,TGI,A549 NSCLC,> 100 µM
same,TGI,NCI-H522 lung,> 100 µM
same,TGI,UACC-62 melanoma,> 100 µM
same,TGI,SK-MEL-2 melanoma,> 100 µM
same,TGI,KM12 colon,> 100 µM
same,TGI,NCI/ADR-RES ovarian,> 100 µM
same,TGI,SK-OV-3 ovarian,> 100 µM
BrC1(c2ccccc2)C[n+]2c(-c3ccccc3)cc(-c3ccccc3)cc2-c2ccccc21 (configuration not stated),TGI,SNB-75 CNS,0.621 µM
same,TGI,PC-3 prostate,3.45 µM
same,TGI,A549 NSCLC,9.77 µM
same,TGI,NCI-H522 lung,11.3 µM
same,TGI,SK-MEL-2 melanoma,1.08 µM
same,TGI,KM12 colon,1.34 µM
same,TGI,NCI/ADR-RES ovarian,65.5 µM
same,TGI,CAKI-1 renal,9.66 µM
C=CCOC(C)(C)C1=CCC(C)CC1 (configuration not stated),TGI,SNB-75 CNS,> 100 µM
same,TGI,PC-3 prostate,> 100 µM
same,TGI,A549 NSCLC,> 100 µM
same,TGI,NCI-H522 lung,> 100 µM
same,TGI,UACC-62 melanoma,> 100 µM
same,TGI,KM12 colon,> 100 µM
same,TGI,SK-OV-3 ovarian,> 100 µM
same,TGI,CAKI-1 renal,> 100 µM
O=[N+]([O-])/C=C/c1cc(Cl)c(/C=C/[N+](=O)[O-])cc1Cl,TGI,SNB-75 CNS,29.6 µM
same,TGI,PC-3 prostate,9.15 µM
same,TGI,A549 NSCLC,36.1 µM
same,TGI,UACC-62 melanoma,4.34 µM
same,TGI,SK-MEL-2 melanoma,12.8 µM
same,TGI,KM12 colon,> 24.6 µM
same,TGI,NCI/ADR-RES ovarian,> 25 µM
same,TGI,SK-OV-3 ovarian,> 56.6 µM
